Measured values from patent US20180065968A1, “NEW SUBSTITUTED TRIAZOLOPYRIMIDINES AS ANTI-MALARIAL AGENTS” (BOARD OF REGENTS OF THE UNIVERSITY OF TEXAS SYSTEM, priority 2015, published 2018).
In brackets after ≈: the same amount, converted by molar mass. Read-outs that look alike come from different tables or passages of the source. Blank lines part the entries; values can stand above or below the compound they belong to.

Columns and labels:
P. falciparum 3D7 = P. falciparum 3D7 growth inhibition assay (SYBR green); format: cell-based; conditions: Plasmodium falciparum, 72 h incubation, 50% growth inhibition, read-out: Pf 3D7 EC50
Experimental: The ability of triazolopyrimidine derivatives according to the invention to kill P. falciparum parasites and/or to inhibit its proliferation is assayed through their ability to inhibit Plasmodium falciparum growth. The growth inhibition assay is as follows: P. falciparum 3D7 cells were grown in Gibco-Invitrogen RPMI-1640 supplemented with 2% (w/v) red blood cells (RBCs) and either 20% human type A+ plasma (Desjardins et al., 1979, Antimicrob Agents Chemother. 16, 710-718) or with Gibco-Invitrogen 0.5% Albumax I (Coteron et al., 2011, J. Med. Chem., 54, 5540-5561). Serial dilutions of compound stocks were prepared in 100% DMSO at 200× the final concentration, followed by generation of 20× stocks in media. Cell growth was monitored by the SYBR green method as described (Deng, et al., 2014. J. Med. Chem., 57, 5381-539). Parasites (0.19 ml of 0.5% parasitemia, 0.5% HCT) were plated into 96-well microtiter plates containing 10 μL compound or DMSO control (final DMSO concentration of 0.5%). Non-parasitized RBCs (0.5% HCT) were used as a control to determine background fluorescence. After 72 h of incubation parasitized RBCs were quantitated by the SYBR Green method. 2× SYBR Green I solution (20 μL) in 1× PBS was mixed with 20 μL parasites in 96-well plates, incubated for 20 min, and after which 160 μL of 1× PBS was added. Fluorescence was detected using a BD Biosciences Acurri C6 flow cytometer and events recorded within gates that encompassed all asexual growth stages of the P. falciparum intraerythrocytic life cycle. A minimum 50,000 total events were recorded per well. Background events determined from non-parasitized RBC controls were subtracted from final counts.

pfDHODH = target: T1, pfDHODH (Plasmodium falciparum, UniProt Q08210); experiment: biochemical
T1 sequence (Q08210 24-569): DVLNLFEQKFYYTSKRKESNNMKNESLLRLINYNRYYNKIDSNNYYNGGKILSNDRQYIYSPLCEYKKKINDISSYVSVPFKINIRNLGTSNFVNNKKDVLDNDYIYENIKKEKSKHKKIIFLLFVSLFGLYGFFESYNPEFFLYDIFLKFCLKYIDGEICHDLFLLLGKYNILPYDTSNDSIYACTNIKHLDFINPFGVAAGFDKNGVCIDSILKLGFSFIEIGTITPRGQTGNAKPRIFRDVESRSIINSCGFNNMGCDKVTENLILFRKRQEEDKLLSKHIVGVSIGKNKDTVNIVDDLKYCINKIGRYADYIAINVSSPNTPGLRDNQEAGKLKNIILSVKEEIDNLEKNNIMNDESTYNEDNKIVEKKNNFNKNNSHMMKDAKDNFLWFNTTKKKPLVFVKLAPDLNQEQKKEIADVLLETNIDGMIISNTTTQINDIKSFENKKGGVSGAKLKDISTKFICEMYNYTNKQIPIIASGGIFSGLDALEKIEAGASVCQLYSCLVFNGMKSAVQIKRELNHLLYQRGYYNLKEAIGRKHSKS
Experimental: (§1) The compounds of the invention were also assessed for inhibitory activity against recombinant DHODH from the indicated species. Recombinant enzymes were produced and purified from E. coli as His6 fusion proteins and purified by Ni^+2-agarose chromatography as described.
(§2) Data were collected on a Synergy H1 hybrid plate reader in 96 well plate format at 28° C., using a final assay volume of 200 μl. Rate data (v) were converted to μmoles/min using the molar extinction coefficient for DCIP. Compounds were prepared in stock solutions of DMSO. An initial 100 mM stock was generated and this was used to prepare a 3 fold dilution series in DMSO. A 1:100 dilution of DMSO stock was made into assay buffer to generate the final concentration in the assay mix.
(§3) Assay Conditions: DHODH (ET=5-10 nM), substrates (0.2 mM L-dihydroorotate and 0.02 mM CoQD), DCIP (0.12 mM) and assay buffer (100 mM HEPES, pH 8.0, 150 mM NaCl, 10% Glycerol, 0.1%Triton) at 20° C. Concentration of compounds of the invention was varied in a 3-fold dilution series (0.01-100 uM). All data were collected in triplicate.
(§4) Fitting was performed in Graph Pad Prism to determine the IC50. Reported error represents the 95% confidence interval of the fit or the standard deviation of the mean.

dog DHODH = dog DHODH (Canis lupus familiaris, UniProt A0A8I3MWX2); experiment: Recombinant DHODH inhibition, DCIP dye-based assay; format: biochemical
Experimental: as §1, §2, §3, §4

human DHODH = human DHODH (Homo sapiens, UniProt Q02127); experiment: Recombinant DHODH inhibition, DCIP dye-based assay; format: biochemical; conditions: first value of cell, read-out: h/d/m/r DHODH (h)
Experimental: as §1, §2, §3, §4

mouse DHODH = mouse DHODH (Mus musculus, UniProt O35435); experiment: Recombinant DHODH inhibition, DCIP dye-based assay; format: biochemical; conditions: third value of cell, read-out: h/d/m/r DHODH (m)
Experimental: as §1, §2, §3, §4

rat DHODH = rat DHODH (Rattus norvegicus, UniProt Q63707); experiment: Recombinant DHODH inhibition, DCIP dye-based assay; format: biochemical; conditions: fourth value of cell, read-out: h/d/m/r DHODH (r)
Experimental: as §1, §2, §3, §4

[1] = Aqueous kinetic solubility by nephelometry; format: physicochemical; conditions: pH 6.5 phosphate buffer, 1% DMSO; for solubility kinetic: aqueous buffer, kinetic from dmso stock, read-out: Kinetic Solubility pH6.5
Experimental: Aqueous solubility was estimated by nephelometry. Concentrated stock solutions were prepared in DMSO and diluted into either pH 6.5 phosphate buffer or 0.01 M HCl (approximately pH 2.0), with the final DMSO concentration being 1%. Samples were then analyzed by nephelometry to determine the solubility range as described previously (Bevan, et al., 2000, Anal. Chem., 72, 1781-1787).

[2] = system: P. falciparum Pf3D70087/N9; experiment: SCID mouse P. falciparum in vivo efficacy model; parameters: species or system P. falciparum in NOD-scid IL-2Rγnull (NSG) mice; conditions: oral, starting day 3 post infection, NSG mice engrafted with human erythrocytes
Experimental: Briefly, NOD-scid IL-2Rγnull (NSG) mice (Jackson Laboratory, USA) (23-36 g) engrafted with human erythrocytes as described were infected with 20×10^6 P. falciparum Pf3D70087/N9) generated in GlaxoSmithkline Tres Cantos (Spain) by intravenous injection. Compounds were administered orally in vehicle (saline solution for Chloroquine; 0.5% w/v sodium carboxymethylcellulose, 0.5% v/v benzyl alcohol, 0.4% v/v Tween 80 in water for triazolopyrimidine analogs). Compounds were administered at target doses ranging from 0.5 to 75 mg/kg (free base equivalent) starting on day 3 post infection. Formulation concentrations were measured to obtain the actual doses administered. Parasitemia was monitored by flow cytometry and the effective dose (ED90) was calculated as described in Jimenez-Diaz, 2009, Antimicrobial agents and chemotherapy, 53, 4533-4536.

[3] = system: P. falciparum FC27 lab lines; experiment: Ex vivo schizont maturation assay, lab line; format: cell-based; conditions: Plasmodium falciparum, read-out: P. falciparum FC27 lab lines IC50
Experimental: (§5) To assess comparative activity between P. falciparum and P. vivax strains compounds were tested in an ex vivo parasite assay using Plasmodium isolates from patients who visited clinics in Timika (Papua, Indonesia). Parasites in this region are resistant to standard anti-malarials such as chloroquine. P. vivax can not be cultivated in vitro so the ex vivo assay is the only method to evaluate drug sensitivity. Patients with parasitemia between 2000 and 80,000 ul^−1 were eligible for recruitment into the study. Blood was collected by venipuncture, host white blood cells were removed and packed infected red blood cells were used for the ex vivo studies. Drug susceptibility was measured as previously described (Russell et al., 2008, Antimicrobial Agents Chemother., 52, 1040-1045; Marfurt et al., 2011, Antimicrobial Agents Chemother., 55, 961-966; Marfurt et al., 2011, Antimicrobial Agents Chemother., 55, 4461-4464). Briefly two hundred μl of a 2% hematocrit blood mixture, consisting of RPMI 1640 medium plus 10% AB+ human serum (P. falciparum) or McCoy's 5A medium plus 20% AB+ human serum (P. vivax) was added to each well of pre-dosed drug plates containing serial 2-fold dilutions of the anti-malarial compound. A candle jar was used to mature parasites at 37° C. for 35-56 hrs. […] Thick blood films made from each well were stained with 5% Giemsa for 30 min and examined microscopically. The number of schizonts per 200 asexual stage parasites was determined and normalized to the control well. Data were analyzed by nonlinear regression (WinNonLn 4.1) to determine the IC50 using the inhibitory sigmoid Emax model.
(§6) Drug plate quality was assured by running schizont maturation assays (two independent experiments) with the chloroquine-resistant strain K1 and the chloroquine-sensitive strain FC27. For microscopy slide reading QC, two randomly selected drugs per isolate were read by a second microscopist. […] If necessary, discrepant results were resolved by a third reading by an expert microscopist.

[4] = system: P. falciparum clinical isolates; experiment: Ex vivo schizont maturation assay, clinical isolates; format: cell-based; conditions: Plasmodium falciparum, read-out: P. falciparum clinical isolates IC50
Experimental: as §5, §6

[5] = system: P. vivax clinical isolates; experiment: as above; format: cell-based; conditions: for IC50: Plasmodium vivax, read-out: P. vivax clinical isolates IC50
Experimental: as §5, §6

[6] = recombinant enzyme, DCIP assay, IC50, read-out: PfDHODH
[7] = dog DHODH, second value of cell, read-out: h/d/m/r DHODH (d)
[8] = ex vivo schizont maturation, 35-56 hrs, FC27 chloroquine sensitive lab strain
[9] = ex vivo schizont maturation, 35-56 hrs, isolates from Timika (Papua, Indonesia)

Sequence of mouse DHODH (O35435 whole entry): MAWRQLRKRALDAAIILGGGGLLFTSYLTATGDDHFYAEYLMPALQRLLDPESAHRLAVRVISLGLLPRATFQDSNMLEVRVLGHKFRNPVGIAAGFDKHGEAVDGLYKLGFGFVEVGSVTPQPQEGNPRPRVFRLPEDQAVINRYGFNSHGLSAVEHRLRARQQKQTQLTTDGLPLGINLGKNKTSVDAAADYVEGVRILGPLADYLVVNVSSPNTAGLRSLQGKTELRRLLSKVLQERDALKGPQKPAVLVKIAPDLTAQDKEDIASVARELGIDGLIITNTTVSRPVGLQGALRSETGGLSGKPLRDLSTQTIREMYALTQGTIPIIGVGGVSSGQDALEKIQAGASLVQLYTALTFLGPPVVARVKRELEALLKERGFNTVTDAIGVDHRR
Sequence of rat DHODH (Q63707 whole entry): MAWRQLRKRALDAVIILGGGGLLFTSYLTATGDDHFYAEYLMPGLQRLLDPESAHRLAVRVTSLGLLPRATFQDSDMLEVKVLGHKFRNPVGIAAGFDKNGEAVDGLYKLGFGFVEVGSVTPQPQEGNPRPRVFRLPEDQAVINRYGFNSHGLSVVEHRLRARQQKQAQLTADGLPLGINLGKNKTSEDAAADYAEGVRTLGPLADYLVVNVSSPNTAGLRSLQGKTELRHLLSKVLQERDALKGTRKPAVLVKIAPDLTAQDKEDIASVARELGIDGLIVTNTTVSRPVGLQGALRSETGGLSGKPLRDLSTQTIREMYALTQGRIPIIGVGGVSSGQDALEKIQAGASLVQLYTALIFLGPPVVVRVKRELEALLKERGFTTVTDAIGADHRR
Sequence of dog DHODH (A0A8I3MWX2 1-406): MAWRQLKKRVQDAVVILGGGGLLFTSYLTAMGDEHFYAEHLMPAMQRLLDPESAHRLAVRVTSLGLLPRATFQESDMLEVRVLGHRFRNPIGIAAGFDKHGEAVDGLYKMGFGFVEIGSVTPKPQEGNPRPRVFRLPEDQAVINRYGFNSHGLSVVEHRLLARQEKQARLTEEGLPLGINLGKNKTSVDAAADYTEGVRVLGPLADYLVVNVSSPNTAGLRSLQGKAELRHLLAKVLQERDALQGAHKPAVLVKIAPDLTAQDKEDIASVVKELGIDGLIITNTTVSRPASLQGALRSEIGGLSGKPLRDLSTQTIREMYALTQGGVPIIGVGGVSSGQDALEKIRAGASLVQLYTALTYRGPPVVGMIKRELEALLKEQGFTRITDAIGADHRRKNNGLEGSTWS
Sequence of human DHODH (Q02127 whole entry): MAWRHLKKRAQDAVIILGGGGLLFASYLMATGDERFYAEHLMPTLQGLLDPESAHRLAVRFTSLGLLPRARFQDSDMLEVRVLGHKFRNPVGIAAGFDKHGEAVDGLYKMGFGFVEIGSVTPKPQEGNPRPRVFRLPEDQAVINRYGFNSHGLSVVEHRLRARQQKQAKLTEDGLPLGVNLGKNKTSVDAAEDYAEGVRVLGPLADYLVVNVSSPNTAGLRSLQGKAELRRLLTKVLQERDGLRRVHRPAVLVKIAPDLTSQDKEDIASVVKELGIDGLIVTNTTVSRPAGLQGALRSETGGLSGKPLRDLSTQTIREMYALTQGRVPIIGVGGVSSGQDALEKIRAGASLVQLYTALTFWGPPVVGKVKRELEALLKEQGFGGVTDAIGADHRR

Compound: Cc1cc(Nc2ccc(C(F)(F)F)nc2)n2nc(C(F)(F)F)nc2n1 [Compound (3), 5-methyl-2-(trifluoromethyl)-N-(6-(trifluoromethyl)pyridin-3-yl)-[1,2,4]triazolo[1,5-a]pyrimidin-7-amine]
EC50 (P. falciparum 3D7): 35 nM
IC50 (pfDHODH; [6]): 41 nM
IC50 (dog DHODH): 39000 nM
IC50 (human DHODH): > 100000 nM
IC50 (mouse DHODH): 33000 nM
IC50 (rat DHODH): 8400 nM
solubility kinetic [1]: 50 µg/mL (≈ 138 µM)

Compound: Cc1cc(Nc2ccc(C(F)(F)F)nc2)n2nc(C(C)(F)F)nc2n1 [Compound (1), 2-(1,1-difluoroethyl)-5-methyl-N-(6-(trifluoromethyl)pyridin-3-yl)-[1,2,4]triazolo[1,5-a]pyrimidin-7-amine]
EC50 (P. falciparum 3D7): 11 nM
IC50 (pfDHODH; [6]): 30 nM
IC50 (dog DHODH; [7]): 65000 nM
IC50 (human DHODH): > 100000 nM
IC50 (mouse DHODH): 54000 nM
IC50 (rat DHODH): 24000 nM
solubility kinetic [1]: > 100 µg/mL
ED90 [2]: 2.6 mg/kg per day
IC50 [3, 8]: 292 nM
IC50 [4, 9]: 151 nM
IC50 [5, 9]: 175 nM
comparative activity between P. falciparum and P. vivax ([5]; ex vivo parasite assay): equivalent activity on both P. falciparum and P. vivax

Compound: CCN(CC)CCCC(C)Nc1ccnc2cc(Cl)ccc12 (stereo not drawn) [Chloroquine]
ED90 [2]: 4.3 mg/kg per day
IC50 [3]: 23 to 32 nM
IC50 [4]: 86 to 101 nM
IC50 [5]: 43 to 147 nM

EC50 (P. falciparum 3D7): 70 nM
IC50 (pfDHODH; [6]): 37 nM
IC50 (human DHODH): > 50000 nM
solubility kinetic [1]: 1.6 µg/mL (≈ 4.42 µM)
Compound: Cc1cc(Nc2ccc(C(F)(F)F)cn2)n2nc(C(F)(F)F)nc2n1 [Reference 2]

Compound: C[C@H]1[C@H](OC(=O)CCC(=O)O)O[C@@H]2O[C@@]3(C)CC[C@H]4[C@H](C)CC[C@@H]1[C@@]24OO3 [Artesunate]
IC50 [3]: 3.6 to 11 nM
IC50 [5]: 0.8 to 2.9 nM

Compound: Cc1cc(Nc2ccc(C(F)(F)F)cc2)n2nc(C(C)(F)F)nc2n1 [Reference 3]
EC50 (P. falciparum 3D7): 8.3 nM
IC50 (pfDHODH): 31 nM
IC50 (dog DHODH; [7]): > 100000 nM
IC50 (human DHODH): > 100000 nM
IC50 (mouse DHODH): 24000 nM
IC50 (rat DHODH): 7200 nM
solubility kinetic [1]: 50 µg/mL (≈ 140 µM)
ED90 [2]: 26 mg/kg per day

EC50 (P. falciparum 3D7): 16 nM
IC50 (pfDHODH; [6]): 23 nM
IC50 (dog DHODH; [7]): 9200 nM
IC50 (human DHODH): 62000 nM
IC50 (mouse DHODH): 20000 nM
IC50 (rat DHODH): 15700 nM
solubility kinetic [1]: > 100 µg/mL
Compound: Cc1nc2nc(C(C)(F)F)nn2c(Nc2ccc(C(F)(F)F)nc2)c1F [Compound (2), 2-(1,1-difluoroethyl)-6-fluoro-5-methyl-N-(6-(trifluoromethyl)pyridin-3-yl)-[1,2,4]triazolo[1,5-a]pyrimidin-7-amine]

Compound: CCc1nc(N)nc(N)c1-c1ccc(Cl)cc1 [Pyrimethamine]
ED90 [2]: 0.9 mg/kg per day

Compound: Cc1cc(Nc2ccc(S(F)(F)(F)(F)F)cc2)n2nc(C(C)(F)F)nc2n1 [Reference 4]
EC50 (P. falciparum 3D7): 5 nM
solubility kinetic [1]: 25 µg/mL (≈ 60.2 µM)
ED90 [2]: 8.1 mg/kg per day
IC50 [3, 8]: 177 nM
IC50 [4, 9]: 190 nM
IC50 [5, 9]: 920 nM

Compound: Cc1cc(Nc2ccc(C(F)(F)F)nc2)n2nc(C(C)(F)F)nc2n1 [Reference 1]
IC50 (pfDHODH; [6]): 50 nM
IC50 (dog DHODH; [7]): 21000 nM
IC50 (human DHODH): 58000 nM
IC50 (mouse DHODH): 74000 nM
IC50 (rat DHODH): 4400 nM
Kinetic Solubility pH6.5 [1]: 6.3 μg/ml
